Reference: patent US20220249413A1, “SWELL 1 MODULATORS FOR TREATMENT OF NON-ALCOHOLIC FATTY LIVER DISEASE, IMMUNE DEFICIENCIES, MALE INFERTILITY AND VASCULAR DISEASES” (priority 2019, published 2022)

Assay: Metabolic phenotyping: fasting glucose, GTT, ITT
Format: in vivo, mouse
From the text: Patients Human islets and adipocytes were obtained and cultured as described previously (Zhang et al., Nat Cell Biol, 19, 504-517, 2017; Kang et al., Nature Communications, 9, 367, 2018). The Patients involved in the study were anonymous and information such as gender, age, HbA1c, glucose levels and BMI only were available to the research team. The study was approved and carried out as per the guidelines of the University of Iowa Institutional Review Board (IRB). Animals All experimental procedures involving mice were approved by the Institutional Animal Care and Use Committee of the University of Iowa and Washington University at St. Louis. All C57BL/6 mice involved in study were purchased from Charles River Labs. Both KK.Cg-Ay/J (KKA^y) and KK.Cg-Aa/J (KKA^a) mice involved in study were gender and age-matched mice obtained from Jackson Labs (Stock No: 002468) and bred up for experiments. The mice were fed ad libitum with either regular chow (RC) or high-fat diet (Research Diets, Inc., 60 kcal % fat) with free access to water and housed in a light-, temperature- and humidity-controlled room. For high-fat diet (HFD) studies, only male mice were used and were started on HFD regimen at the age of 6-9 weeks. For all experiments involving KKA^y and KKA^a mice, both males and females were used at approximately 50/50 ratio. In all experiments involving mice, investigators were kept blinded both during the experiments and subsequent analysis. Smod1 (DCPIB) treatment Smod1 (DCPIB, Tocris, #D1540), was dissolved in Kolliphor® EL (Sigma, #C5135). Either vehicle (Kolliphor® EL) or Smod1 (5 mg/kg of body weight/day) were injected (intraperitoneal, i.p.) using 1 cc syringe/26G/[…] needle daily for 4-10 days, and in one experiment, daily for 8 weeks. Adenovirus Adenovirus type 5 with Ad5-RIP2-GFP (4.1×10^10 PFU/ml) and Ad5-CAG-LoxP-stop-LoxP-3× Flag-SWELL1 (1×10^10 PFU/ml) were obtained from Vector Biolabs. Adenovirus type 5 with Ad5-CMV-Cre-wt-IRES-eGFP (8×10^10 PFU/ml) was obtained from the University of Iowa Viral Vector Core. Cell culture Wildtype (WT) and SWELL1 knockout (KO) 3T3-F442A (Sigma-Aldrich) cells were cultured and differentiated as described previously (Zhang et al., Nat Cell Biol, 19, 504-517, 2017). Preadipocytes were maintained in 90% DMEM (25 mM D-Glucose and 4 mM L-Glutamine) containing 10% fetal bovine serum (FBS) and 100 IU penicillin and 100 μg/ml streptomycin on collagen-coated (rat tail type-I collagen, Corning) plates. Upon reaching confluency, the cells were differentiated in the above-mentioned media supplemented with 5 μg/ml insulin (Cell Applications) and replenished every other day with the differentiation media. For insulin signaling studies on WT and KO adipocytes with or without SWELL1 overexpression (O/E), the cells were differentiated for 10 days and transduced with Ad5-CAG-LoxP-stop-LoxP-3× Flag-SWELL1 virus (MOI 12) on day 11 in 2% FBS containing differentiation medium. To induce the overexpression, Ad5-CMV-Cre-wt-IRES-eGFP (MOI 12) was added on day 13 in 2% FBS containing differentiation medium. The cells were then switched to 10% FBS containing differentiation medium from day 15 to 17. On day 18, the cells were starved in serum free media for 6 h and stimulated with 0 and 10 nM insulin for either 5 or 15 min. Either Ad5-CAG-LoxP-stop-LoxP-3× Flag-SWELL1 or Ad5-CMV-Cre-wt-IRES-eGFP virus transduced cells alone were used as controls. Based on GFP fluorescence, viral transduction efficiency was ˜90%.
Electrophysiology Patch-clamp recordings of β-cells and mature adipocytes were performed as described previously (Zhang et al., Nat Cell Biol, 19, 504-517, 2017; Kang et al., Nature Communications, 9, 367, 2018). 3T3-F442A WT and KO preadipocytes were prepared as described in the Cell culture section above. […]

[1] = HFD-induced T2D mice and KKA^y model, 5 mg/kg i.p. 4-10 days
[2] = control KKA^a parental strain, 5 mg/kg x 4-10 days

SMILES: CCCCC1(C2CCCC2)Cc2cc(OCCCC(=O)O)c(Cl)c(Cl)c2C1=O (centres unmarked) [Smod1, 4-[(2-Butyl-6,7-dichloro-2-cyclopentyl-2,3-dihydro-1-oxo-1H-inden-5-yl)oxy]butanoic acid]
- random glucose 30 minutes after injection (HFD fed C57BL/6 mice, 5 mg/kg i.p., acute (FIG. 23)): no evidence of exacerbated hyperglycemia
- fasting glucose (FG) [1]: normalized
- glucose tolerance (GTT) [1]: normalized
- insulin-tolerance (ITT) [1]: markedly improved
- glucose and insulin tolerance [2]: nor does it alter glucose and insulin tolerance
- hypoglycemia [2]: does not cause hypoglycemia
- FG, GTT and ITT compared to vehicle (lean, non-T2D, glucose-tolerant mice): similar
- FG, GTT and ITT (re-treated after 16 weeks of HFD feeding, HFD-induced T2D mice): marked improvements
